Results taken from PubChem BioAssay (NCI).
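Values below derive from 48-hour exposures of cells grown in 96-well plates, with endpoints linearly interpolated between the two concentrations bracketing the appropriate inhibition level. TGI marks complete inhibition of growth.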

Tests used:
Assay in all cases: NCI anticancer screen, dose series, 48 h
NCI/ADR-RES ovarian = tested on: NCI/ADR-RES ovarian
MDA-MB-231 breast = tested on: MDA-MB-231 breast
CCRF-CEM leukemia = tested on: CCRF-CEM leukemia
ACHN renal = tested on: ACHN renal
NCI-H226 lung = tested on: NCI-H226 lung
SR leukemia = tested on: SR leukemia
MCF7 breast = tested on: MCF7 breast
UACC-257 melanoma = tested on: UACC-257 melanoma
OVCAR-5 ovarian = tested on: OVCAR-5 ovarian
UO-31 renal = tested on: UO-31 renal
CAKI-1 renal = tested on: CAKI-1 renal
KM12 colon = tested on: KM12 colon
OVCAR-8 ovarian = tested on: OVCAR-8 ovarian
MDA-MB-435 = tested on: MDA-MB-435
MDA-N = tested on: MDA-N
RPMI-8226 leukemia = tested on: RPMI-8226 leukemia
IGROV1 ovarian = tested on: IGROV1 ovarian
UACC-62 melanoma = tested on: UACC-62 melanoma
COLO 205 colon = tested on: COLO 205 colon
NCI-H460 lung = tested on: NCI-H460 lung
HCT-116 colon = tested on: HCT-116 colon
RXF 393 renal = tested on: RXF 393 renal
SK-MEL-28 melanoma = tested on: SK-MEL-28 melanoma
K-562 leukemia = tested on: K-562 leukemia
786-0 renal = tested on: 786-0 renal
U251 CNS = tested on: U251 CNS
SK-OV-3 ovarian = tested on: SK-OV-3 ovarian
OVCAR-3 ovarian = tested on: OVCAR-3 ovarian
SNB-75 CNS = tested on: SNB-75 CNS
NCI-H23 lung = tested on: NCI-H23 lung
SF-539 CNS = tested on: SF-539 CNS
OVCAR-4 ovarian = tested on: OVCAR-4 ovarian
MOLT-4 leukemia = tested on: MOLT-4 leukemia
PC-3 prostate = tested on: PC-3 prostate
BT-549 breast = tested on: BT-549 breast
DU-145 prostate = tested on: DU-145 prostate
A549 NSCLC = tested on: A549 NSCLC
SNB-19 CNS = tested on: SNB-19 CNS
EKVX NSCLC = tested on: EKVX NSCLC
HOP-92 NSCLC = tested on: HOP-92 NSCLC
SW-620 colon = tested on: SW-620 colon
SF-295 CNS = tested on: SF-295 CNS
SN12C renal = tested on: SN12C renal
T-47D breast = tested on: T-47D breast
HOP-62 NSCLC = tested on: HOP-62 NSCLC
M14 melanoma = tested on: M14 melanoma
HT29 colon = tested on: HT29 colon
LOX IMVI melanoma = tested on: LOX IMVI melanoma
SK-MEL-5 melanoma = tested on: SK-MEL-5 melanoma
SK-MEL-2 melanoma = tested on: SK-MEL-2 melanoma
A498 renal = tested on: A498 renal
TK-10 renal = tested on: TK-10 renal
HCT-15 colon = tested on: HCT-15 colon
MALME-3M melanoma = tested on: MALME-3M melanoma
NCI-H522 lung = tested on: NCI-H522 lung
HCC-2998 colon = tested on: HCC-2998 colon
HS 578T breast = tested on: HS 578T breast
SF-268 CNS = tested on: SF-268 CNS

SMILES: O=S(=O)(c1ccccc1)n1c(C(O)c2ccncc2)cc2ccccc21 (stereo not drawn)
- TGI (NCI/ADR-RES ovarian): > 100 µM
- TGI (MDA-MB-231 breast): > 100 µM
- TGI (CCRF-CEM leukemia): > 100 µM
- TGI (ACHN renal): > 100 µM
- TGI (NCI-H226 lung): > 100 µM
- TGI (SR leukemia): > 100 µM
- TGI (MCF7 breast): 40.5 µM
- TGI (UACC-257 melanoma): 38.9 µM
- TGI (OVCAR-5 ovarian): > 100 µM
- TGI (UO-31 renal): 44.7 µM
- TGI (CAKI-1 renal): > 100 µM
- TGI (KM12 colon): > 100 µM
- TGI (OVCAR-8 ovarian): > 100 µM
- TGI (MDA-MB-435): > 100 µM
- TGI (MDA-N): > 100 µM
- TGI (RPMI-8226 leukemia): > 100 µM
- TGI (IGROV1 ovarian): > 100 µM
- TGI (UACC-62 melanoma): 98.9 µM
- TGI (COLO 205 colon): > 100 µM
- TGI (NCI-H460 lung): > 100 µM
- TGI (HCT-116 colon): > 100 µM
- TGI (RXF 393 renal): > 100 µM
- TGI (SK-MEL-28 melanoma): > 100 µM
- TGI (K-562 leukemia): > 100 µM
- TGI (786-0 renal): > 100 µM
- TGI (U251 CNS): > 100 µM
- TGI (SK-OV-3 ovarian): > 100 µM
- TGI (OVCAR-3 ovarian): > 100 µM
- TGI (SNB-75 CNS): > 100 µM
- TGI (NCI-H23 lung): > 100 µM
- TGI (SF-539 CNS): > 100 µM
- TGI (OVCAR-4 ovarian): > 100 µM
- TGI (MOLT-4 leukemia): > 100 µM
- TGI (PC-3 prostate): > 100 µM
- TGI (BT-549 breast): > 100 µM
- TGI (DU-145 prostate): > 100 µM
- TGI (A549 NSCLC): > 100 µM
- TGI (SNB-19 CNS): > 100 µM
- TGI (EKVX NSCLC): > 100 µM
- TGI (HOP-92 NSCLC): > 100 µM
- TGI (SW-620 colon): > 100 µM
- TGI (SF-295 CNS): > 100 µM
- TGI (SN12C renal): > 100 µM
- TGI (T-47D breast): > 100 µM
- TGI (HOP-62 NSCLC): > 100 µM
- TGI (M14 melanoma): > 100 µM
- TGI (HT29 colon): > 100 µM
- TGI (LOX IMVI melanoma): > 100 µM
- TGI (SK-MEL-5 melanoma): 35.4 µM
- TGI (SK-MEL-2 melanoma): > 100 µM
- TGI (A498 renal): > 100 µM
- TGI (TK-10 renal): 79.7 µM
- TGI (HCT-15 colon): > 100 µM

SMILES: O=C(O)CC(NC(=O)Nc1ccc([N+](=O)[O-])cc1)C(=O)Nc1ccc([N+](=O)[O-])cc1 (stereo not drawn)
- TGI (NCI/ADR-RES ovarian): > 100 µM
- TGI (MDA-MB-231 breast): > 100 µM
- TGI (CCRF-CEM leukemia): > 100 µM
- TGI (ACHN renal): > 100 µM
- TGI (NCI-H226 lung): > 100 µM
- TGI (MALME-3M melanoma): > 100 µM
- TGI (MCF7 breast): > 100 µM
- TGI (UACC-257 melanoma): > 100 µM
- TGI (OVCAR-5 ovarian): > 100 µM
- TGI (UO-31 renal): > 100 µM
- TGI (CAKI-1 renal): > 100 µM
- TGI (KM12 colon): > 100 µM
- TGI (OVCAR-8 ovarian): > 100 µM
- TGI (MDA-MB-435): > 100 µM
- TGI (MDA-N): > 100 µM
- TGI (RPMI-8226 leukemia): > 100 µM
- TGI (IGROV1 ovarian): > 100 µM
- TGI (NCI-H522 lung): > 100 µM
- TGI (UACC-62 melanoma): > 100 µM
- TGI (COLO 205 colon): > 100 µM
- TGI (NCI-H460 lung): > 100 µM
- TGI (HCT-116 colon): > 100 µM
- TGI (RXF 393 renal): > 100 µM
- TGI (SK-MEL-28 melanoma): > 100 µM
- TGI (K-562 leukemia): > 100 µM
- TGI (786-0 renal): > 100 µM
- TGI (U251 CNS): > 100 µM
- TGI (SK-OV-3 ovarian): > 100 µM
- TGI (OVCAR-3 ovarian): > 100 µM
- TGI (SNB-75 CNS): > 100 µM
- TGI (NCI-H23 lung): > 100 µM
- TGI (SF-539 CNS): > 100 µM
- TGI (HCC-2998 colon): > 100 µM
- TGI (OVCAR-4 ovarian): > 100 µM
- TGI (MOLT-4 leukemia): > 100 µM
- TGI (PC-3 prostate): > 100 µM
- TGI (BT-549 breast): > 100 µM
- TGI (HS 578T breast): > 100 µM
- TGI (DU-145 prostate): > 100 µM
- TGI (A549 NSCLC): > 100 µM
- TGI (SNB-19 CNS): > 100 µM
- TGI (EKVX NSCLC): > 100 µM
- TGI (SW-620 colon): > 100 µM
- TGI (SF-295 CNS): > 100 µM
- TGI (T-47D breast): > 100 µM
- TGI (HOP-62 NSCLC): > 100 µM
- TGI (M14 melanoma): > 100 µM
- TGI (SF-268 CNS): > 100 µM
- TGI (HT29 colon): > 100 µM
- TGI (LOX IMVI melanoma): > 100 µM
- TGI (SK-MEL-5 melanoma): > 100 µM
- TGI (SK-MEL-2 melanoma): > 100 µM
- TGI (A498 renal): > 100 µM
- TGI (TK-10 renal): > 100 µM
- TGI (HCT-15 colon): > 100 µM
